Measured values published in PubChem BioAssay (NCI).
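48-hour exposure; five concentrations; linearly interpolated endpoints. GI50 is the concentration that inhibits growth by half. At the TGI there is no net growth.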

Legend:
Assay in all cases: inhibition of tumour cell growth, NCI panel, 48 h
LOX IMVI melanoma = test system: LOX IMVI melanoma
CAKI-1 renal = test system: CAKI-1 renal
MDA-MB-231 breast = test system: MDA-MB-231 breast
COLO 205 colon = test system: COLO 205 colon
K-562 leukemia = test system: K-562 leukemia
HCC-2998 colon = test system: HCC-2998 colon
NCI-H226 lung = test system: NCI-H226 lung
HT29 colon = test system: HT29 colon
RPMI-8226 leukemia = test system: RPMI-8226 leukemia
HOP-62 NSCLC = test system: HOP-62 NSCLC
HL-60(TB) leukemia = test system: HL-60(TB) leukemia
SK-OV-3 ovarian = test system: SK-OV-3 ovarian
NCI-H23 lung = test system: NCI-H23 lung
SK-MEL-5 melanoma = test system: SK-MEL-5 melanoma
A549 NSCLC = test system: A549 NSCLC
HOP-92 NSCLC = test system: HOP-92 NSCLC
CCRF-CEM leukemia = test system: CCRF-CEM leukemia
SK-MEL-28 melanoma = test system: SK-MEL-28 melanoma
U251 CNS = test system: U251 CNS
SW-620 colon = test system: SW-620 colon
786-0 renal = test system: 786-0 renal
UO-31 renal = test system: UO-31 renal
OVCAR-4 ovarian = test system: OVCAR-4 ovarian
MCF7 breast = test system: MCF7 breast
SR leukemia = test system: SR leukemia
NCI-H522 lung = test system: NCI-H522 lung
TK-10 renal = test system: TK-10 renal
UACC-62 melanoma = test system: UACC-62 melanoma
A498 renal = test system: A498 renal
EKVX NSCLC = test system: EKVX NSCLC
KM12 colon = test system: KM12 colon
SK-MEL-2 melanoma = test system: SK-MEL-2 melanoma
T-47D breast = test system: T-47D breast
MALME-3M melanoma = test system: MALME-3M melanoma
SF-268 CNS = test system: SF-268 CNS
IGROV1 ovarian = test system: IGROV1 ovarian
HS 578T breast = test system: HS 578T breast
BT-549 breast = test system: BT-549 breast
SNB-19 CNS = test system: SNB-19 CNS
OVCAR-3 ovarian = test system: OVCAR-3 ovarian
OVCAR-8 ovarian = test system: OVCAR-8 ovarian
SF-539 CNS = test system: SF-539 CNS
UACC-257 melanoma = test system: UACC-257 melanoma
HCT-116 colon = test system: HCT-116 colon
PC-3 prostate = test system: PC-3 prostate
DU-145 prostate = test system: DU-145 prostate
HCT-15 colon = test system: HCT-15 colon
SNB-75 CNS = test system: SNB-75 CNS
SF-295 CNS = test system: SF-295 CNS
MDA-MB-435 = test system: MDA-MB-435
NCI-H460 lung = test system: NCI-H460 lung
SN12C renal = test system: SN12C renal
M14 melanoma = test system: M14 melanoma
OVCAR-5 ovarian = test system: OVCAR-5 ovarian
ACHN renal = test system: ACHN renal
MOLT-4 leukemia = test system: MOLT-4 leukemia
NCI/ADR-RES ovarian = test system: NCI/ADR-RES ovarian

With `COc1cc(O)c2c3c(ccnc13)-c1ccccc1N2` the GI50 (LOX IMVI melanoma) was 3.2 µM, the TGI (LOX IMVI melanoma) was 31.7 µM and the GI50 (CAKI-1 renal) was 12.8 µM. It also gave a TGI (CAKI-1 renal) of 47.4 µM, a GI50 (MDA-MB-231 breast) of 5.19 µM and a TGI (MDA-MB-231 breast) of 71.9 µM. The GI50 (COLO 205 colon) was 6.23 µM, the TGI (COLO 205 colon) was greater than 100 µM and the GI50 (K-562 leukemia) was 28.1 µM. The TGI (K-562 leukemia) was greater than 100 µM, the GI50 (HCC-2998 colon) was 4.39 µM and the TGI (HCC-2998 colon) was 12.3 µM. For the same molecule, the GI50 (NCI-H226 lung) was 18.6 µM, the TGI (NCI-H226 lung) was 91.9 µM and the GI50 (HT29 colon) was 5.11 µM. The TGI (HT29 colon) was greater than 100 µM, the GI50 (RPMI-8226 leukemia) was 3.93 µM and the TGI (RPMI-8226 leukemia) was greater than 100 µM. For the same molecule, the GI50 (HOP-62 NSCLC) was 10.4 µM, the TGI (HOP-62 NSCLC) was greater than 100 µM and the GI50 (HL-60(TB) leukemia) was 21.8 µM. It also gave a TGI (HL-60(TB) leukemia) greater than 100 µM, a GI50 (SK-OV-3 ovarian) of 28.5 µM and a TGI (SK-OV-3 ovarian) greater than 100 µM. The GI50 (NCI-H23 lung) was 20.5 µM, the TGI (NCI-H23 lung) was greater than 100 µM and the GI50 (SK-MEL-5 melanoma) was 2.73 µM. It also gave a TGI (SK-MEL-5 melanoma) of 12.5 µM, a GI50 (A549 NSCLC) of 2.37 µM and a TGI (A549 NSCLC) greater than 100 µM. For the same molecule, the GI50 (HOP-92 NSCLC) was 24.7 µM, the TGI (HOP-92 NSCLC) was greater than 100 µM and the GI50 (CCRF-CEM leukemia) was 7.36 µM. For the same molecule, the TGI (CCRF-CEM leukemia) was greater than 100 µM, the GI50 (SK-MEL-28 melanoma) was 21.1 µM and the TGI (SK-MEL-28 melanoma) was 72.8 µM. For the same molecule, the GI50 (U251 CNS) was 6.07 µM, the TGI (U251 CNS) was 79.6 µM and the GI50 (SW-620 colon) was 2.63 µM. The TGI (SW-620 colon) was greater than 100 µM, the GI50 (786-0 renal) was 12.3 µM and the TGI (786-0 renal) was greater than 100 µM. It also gave a GI50 (UO-31 renal) of 18.8 µM, a TGI (UO-31 renal) greater than 100 µM and a GI50 (OVCAR-4 ovarian) of 2.85 µM. It also gave a TGI (OVCAR-4 ovarian) of 25.1 µM, a GI50 (MCF7 breast) of 2.01 µM and a TGI (MCF7 breast) of 8.59 µM. The GI50 (SR leukemia) was 0.488 µM, the TGI (SR leukemia) was greater than 100 µM and the GI50 (NCI-H522 lung) was 9.34 µM. It also gave a TGI (NCI-H522 lung) of 60 µM, a GI50 (TK-10 renal) of 33.2 µM and a TGI (TK-10 renal) of 85.9 µM. It also gave a GI50 (UACC-62 melanoma) of 4.33 µM, a TGI (UACC-62 melanoma) of 17.1 µM and a GI50 (A498 renal) of 22.4 µM. The TGI (A498 renal) was 42.2 µM, the GI50 (EKVX NSCLC) was 14.9 µM and the TGI (EKVX NSCLC) was 51.3 µM. It also gave a GI50 (KM12 colon) of 5.06 µM, a TGI (KM12 colon) of 64.5 µM and a GI50 (SK-MEL-2 melanoma) of 21.8 µM. For the same molecule, the TGI (SK-MEL-2 melanoma) was 61.5 µM, the GI50 (T-47D breast) was 8.32 µM and the TGI (T-47D breast) was greater than 100 µM. The GI50 (MALME-3M melanoma) was 14.9 µM, the TGI (MALME-3M melanoma) was 46.5 µM and the GI50 (SF-268 CNS) was 8.63 µM. For the same molecule, the TGI (SF-268 CNS) was 98.9 µM, the GI50 (IGROV1 ovarian) was 10.8 µM and the TGI (IGROV1 ovarian) was greater than 100 µM. The GI50 (HS 578T breast) was 15.5 µM, the TGI (HS 578T breast) was 92.8 µM and the GI50 (BT-549 breast) was 15.4 µM. The TGI (BT-549 breast) was 60.2 µM, the GI50 (SNB-19 CNS) was 4.86 µM and the TGI (SNB-19 CNS) was 49.2 µM. The GI50 (OVCAR-3 ovarian) was 2.01 µM, the TGI (OVCAR-3 ovarian) was 5.96 µM and the GI50 (OVCAR-8 ovarian) was 4.87 µM. For the same molecule, the TGI (OVCAR-8 ovarian) was greater than 100 µM, the GI50 (SF-539 CNS) was 3.33 µM and the TGI (SF-539 CNS) was 10.8 µM. The GI50 (UACC-257 melanoma) was 5.71 µM, the TGI (UACC-257 melanoma) was greater than 100 µM and the GI50 (HCT-116 colon) was 2.4 µM. It also gave a TGI (HCT-116 colon) greater than 100 µM, a GI50 (PC-3 prostate) of 5.61 µM and a TGI (PC-3 prostate) greater than 100 µM. It also gave a GI50 (DU-145 prostate) of 2.77 µM, a TGI (DU-145 prostate) of 35.7 µM and a GI50 (HCT-15 colon) of 2.35 µM. For the same molecule, the TGI (HCT-15 colon) was 29.1 µM, the GI50 (SNB-75 CNS) was 17 µM and the TGI (SNB-75 CNS) was greater than 100 µM. For the same molecule, the GI50 (SF-295 CNS) was 5.9 µM, the TGI (SF-295 CNS) was 53.7 µM and the GI50 (MDA-MB-435) was 1.9 µM. For the same molecule, the TGI (MDA-MB-435) was 3.66 µM, the GI50 (NCI-H460 lung) was 2.69 µM and the TGI (NCI-H460 lung) was greater than 100 µM. For the same molecule, the GI50 (SN12C renal) was 5.42 µM, the TGI (SN12C renal) was 20 µM and the GI50 (M14 melanoma) was 1.69 µM. For the same molecule, the TGI (M14 melanoma) was 7.95 µM, the GI50 (OVCAR-5 ovarian) was 25.3 µM and the TGI (OVCAR-5 ovarian) was greater than 100 µM. For the same molecule, the GI50 (ACHN renal) was 3.02 µM, the TGI (ACHN renal) was 77.9 µM and the GI50 (MOLT-4 leukemia) was 21.2 µM. The TGI (MOLT-4 leukemia) was greater than 100 µM, the GI50 (NCI/ADR-RES ovarian) was 9.25 µM and the TGI (NCI/ADR-RES ovarian) was 92.7 µM.
